According to patent publication US20030170223A1, “Pulmonary vasodilator surfactant compositions and method of use” (Board of Trustees of Michigan State University, priority 2002, published 2003):

Assays:
[1] = test system: elevated PVR; assay: GBS-induced pulmonary hypertension, pilot experiments; assay type: in vivo, rats
Procedure: Experimental Protocol is as follows. Fifteen rats were randomly assigned to 1 of 3 groups. Measurements taken at each time point included arterial and mixed venous blood gases, inert gas determinations in samples of arterial blood, mixed venous blood and expired gas, and TNF and TxB2 assays, mean P sa′ mean PAP, P pcw′ and CO from arterial blood, and PVR (PVR=PAP−P pcw/CO), and systemic vascular resistance (SVR=P sa/CO) were calculated at each time point.
After baseline measurements, all rats received continuous infusion of GBS (1.25×10^9 cfu/kg/hr) for 5 hours. Repeat measurements were made at 0.5, 4.0, 4.5, and 5.0 hr of GBS infusion. After 4 hours of GBS infusion, treated animals received amr (amr 10 and amr 20) (Inocor lactate, Sterling Drug Co., New York, N.Y.); control animals (control) received the amr carrier solution containing lactic acid and sodium metabisulfite. Amr 10 rats (n=5; 11.2: t 4.1 days; 3.0: t 0.5 kg) received an amr bolus (8 mg/kg) followed by a continuous infusion of amr diluted with normal saline (10 about g/kg/min) for 1 hour. Amr 20 rats (n=5; 9.2 t 2.2 days; 2.2: t 0.4 kg) received the same amr bolus (8 mg/kg) followed by a continuous infusion of amr diluted with normal saline (20 about g/kg/min) for 1 hour. […]

[2] = test system: non-septic forms of pulmonary hypertension; conditions: infusion rates of 10 to 40 about g/kg/min, human studies; cited from earlier work
[3] = target: TNF-α (Homo sapiens, UniProt P01375); conditions: Fichtlscherer (2001); cited from earlier work
Chain of TNF-α (P01375 77-233 limits assumed): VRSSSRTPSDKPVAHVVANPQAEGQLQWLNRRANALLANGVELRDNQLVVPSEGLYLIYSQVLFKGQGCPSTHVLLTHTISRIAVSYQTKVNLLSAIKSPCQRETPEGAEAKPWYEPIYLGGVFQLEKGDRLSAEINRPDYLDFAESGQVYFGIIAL

Molecule	effect on elevated PVR [1]	reversal of non-septic pulmonary hypertension [2]	systemic endothelial vasodilator capacity [3]
CC(O)C(=O)O.Nc1cc(-c2ccncc2)c[nH]c1=O [amr]	acute reduction in elevated PVR	successful in reversing	–
ETANERCEPT	–	–	profoundly improves
